Experimental data as given in ChEMBL document CHEMBL5512685, “Discovery of a Promising CBP/p300 Degrader XYD129 for the Treatment of Acute Myeloid Leukemia” (J Med Chem, 2024).
Each block holds one compound with its values, some of them ahead of it. Calls of active or inactive are those of the source. The rule behind the calls is not given here.

How the values were obtained:
[1] = system: MV4-11; assay: Antiproliferative activity against human MV4-11 cells assessed as inhibition of cell growth incubated for 120 hrs by celltiter glo luminescence analysis; format: functional, cell-based; conditions: MV4-11, 120 h
[2] = molecular target: T1, CREB-binding protein (Homo sapiens, UniProt Q92793); assay: Inhibition of C-terminal biotinylated tetra-acetylated histone peptide H4 binding to His6-fused human CBP bromodomain (R1081 to G1197 residues) incubated for 1 hrs by HTRF assay
[3] = molecular target: T2, Histone acetyltransferase p300 (Homo sapiens, UniProt Q09472); assay: Inhibition of C-terminal biotinylated tetra-acetylated histone peptide H4 binding to His6-fused human p300 bromodomain (A1040 to G1161 residues) incubated for 1 hrs by HTRF assay
[4] = molecular target: Protein cereblon (Homo sapiens, UniProt Q96SW2); assay: Inhibition of biotinylated thalidomide binding to CRBN (40 to 442 residues) (unknown origin) incubated for 1 hrs by HTRF assay
[5] = Antiproliferative activity against human MOLM16 cells assessed as inhibition of cell growth incubated for 72 hrs by celltiter glo luminescence analysis; format: functional, cell-based, MOLM-16; conditions: MOLM16, 72 h
[6] = system: KG-1; assay: Antiproliferative activity against human KG-1 cells assessed as inhibition of cell growth incubated for 72 hrs by celltiter glo luminescence analysis; format: functional, cell-based; conditions: KG-1, 72 h
[7] = Cytotoxicity against human HL7702 cells assessed as inhibition of cell growth incubated for 72 hrs by celltiter glo luminescence analysis; format: toxicity, cell-based; conditions: HL7702 (L02) cells
[8] = molecular target: T3, Protein cereblon/CREB-binding protein (Homo sapiens) (UniProt Q92793+Q96SW2); assay: PROTAC activity at CRBN/CBP in human MOLM16 cells assessed as induction of CBP degradation incubated for 24 hrs by Western blot analysis; format: cell-based; conditions: dose 0-1000 nM
[9] = molecular target: T4, Protein cereblon/Histone acetyltransferase p300 (Homo sapiens) (UniProt Q09472+Q96SW2); assay: PROTAC activity at CRBN/p300 in human MOLM16 cells assessed as induction of p300 degradation incubated for 24 hrs by Western blot analysis; format: cell-based; conditions: dose 0-1000 nM
[10] = molecular target: T3, Protein cereblon/CREB-binding protein (Homo sapiens); assay: PROTAC activity at CRBN/CBP in human MOLM16 cells assessed as induction of CBP degradation at 333 nM incubated for 24 hrs by Western blot analysis relative to control; format: cell-based
[11] = molecular target: T4, Protein cereblon/Histone acetyltransferase p300 (Homo sapiens); assay: PROTAC activity at CRBN/p300 in human MOLM16 cells assessed as induction of p300 degradation at 333 nM incubated for 24 hrs by Western blot analysis relative to control; format: cell-based
[12] = molecular target: T3, Protein cereblon/CREB-binding protein (Homo sapiens); assay: PROTAC activity at CRBN/CBP in human MOLM16 cells assessed as induction of CBP degradation at 500 nM by Western blot analysis; format: cell-based; conditions: time 0-24 hrs, TDE = time-dependent effect
[13] = molecular target: T4, Protein cereblon/Histone acetyltransferase p300 (Homo sapiens); assay: PROTAC activity at CRBN/p300 in human MOLM16 cells assessed as induction of p300 degradation at 500 nM by Western blot analysis; format: cell-based; conditions: time 0-24 hrs, TDE = time-dependent effect
[14] = molecular target: T3, Protein cereblon/CREB-binding protein (Homo sapiens); assay: PROTAC activity at CRBN/CBP in human MOLM16 cells assessed as reduction in CBP protein level at 500 nM measured after 18 hrs by Western blot analysis; format: cell-based
[15] = molecular target: T4, Protein cereblon/Histone acetyltransferase p300 (Homo sapiens); assay: PROTAC activity at CRBN/p300 in human MOLM16 cells assessed as reduction in p300 protein level at 500 nM measured after 18 hrs by Western blot analysis; format: cell-based
[16] = molecular target: T3, Protein cereblon/CREB-binding protein (Homo sapiens); assay: PROTAC activity at CRBN/CBP in human MOLM16 cells assessed as reduction in CBP protein level at 500 nM pretreated with pomalidomide for 2 hrs followed by compound treatment and measured after 18 hrs by Western blot analysis; format: cell-based
[17] = molecular target: T4, Protein cereblon/Histone acetyltransferase p300 (Homo sapiens); assay: PROTAC activity at CRBN/p300 in human MOLM16 cells assessed as reduction in p300 protein level at 500 nM pretreated with pomalidomide for 2 hrs followed by compound treatment and measured after 18 hrs by Western blot analysis; format: cell-based
[18] = molecular target: T3, Protein cereblon/CREB-binding protein (Homo sapiens); assay: PROTAC activity at CRBN/CBP in human MOLM16 cells assessed as reduction in CBP protein level at 500 nM pretreated with MG-132 for 2 hrs followed by compound treatment and measured after 18 hrs by Western blot analysis; format: cell-based
[19] = molecular target: T4, Protein cereblon/Histone acetyltransferase p300 (Homo sapiens); assay: PROTAC activity at CRBN/p300 in human MOLM16 cells assessed as reduction in p300 protein level at 500 nM pretreated with MG-132 for 2 hrs followed by compound treatment and measured after 18 hrs by Western blot analysis; format: cell-based
[20] = Antitumor activity against human MOLM16 cells xenografted in NOD-SCID mouse assessed as tumor growth inhibition at 30 mg/kg, ip administered once daily for 2 weeks and measured every other day by caliper method relative to control; format: functional, MOLM-16; conditions: MOLM16, 336 h, read-out: TGI
[21] = Toxicity in NOD-SCID mouse xenografted with human MOLM16 cells assessed as reduction in body weight at 30 mg/kg, ip administered once daily for 2 weeks; format: organism-based; conditions: in vivo, 336 h
[22] = molecular target: T3, Protein cereblon/CREB-binding protein (Homo sapiens); assay: In vivo PROTAC activity at CRBN/CBP in NOD-SCID mouse xenografted with human MOLM16 cells assessed as reduction in CBP level in tumor at 30 mg/kg, ip administered once daily for 2 weeks and measured 1 day post last dose by Western blot analysis; format: functional, organism-based; conditions: time 15.0 day
[23] = system: Mus musculus; assay: In vivo PROTAC activity at CRBN/p300 in NOD-SCID mouse xenografted with human MOLM16 cells assessed as reduction in p300 level in tumor at 30 mg/kg, ip administered once daily for 2 weeks and measured 1 day post last dose by Western blot analysis; format: functional, organism-based; conditions: time 15.0 day
[24] = Toxicity in NOD-SCID mouse xenografted with human MOLM16 cells assessed as pathological changes in heart at 30 mg/kg, ip administered once daily for 2 weeks by H and E staining based analysis; format: organism-based; conditions: in vivo, 336 h
[25] = Toxicity in NOD-SCID mouse xenografted with human MOLM16 cells assessed as pathological changes in liver at 30 mg/kg, ip administered once daily for 2 weeks by H and E staining based analysis; format: organism-based; conditions: in vivo, 336 h
[26] = Toxicity in NOD-SCID mouse xenografted with human MOLM16 cells assessed as pathological changes in spleen at 30 mg/kg, ip administered once daily for 2 weeks by H and E staining based analysis; format: organism-based; conditions: in vivo, 336 h
[27] = Toxicity in NOD-SCID mouse xenografted with human MOLM16 cells assessed as pathological changes in lung at 30 mg/kg, ip administered once daily for 2 weeks by H and E staining based analysis; format: organism-based; conditions: in vivo, 336 h
[28] = Toxicity in NOD-SCID mouse xenografted with human MOLM16 cells assessed as pathological changes in kidney at 30 mg/kg, ip administered once daily for 2 weeks by H and E staining based analysis; format: organism-based; conditions: in vivo, 336 h
[29] = molecular target: T3, Protein cereblon/CREB-binding protein (Homo sapiens); assay: Binding affinity to biotinylated CRBN (40 to 442 residues) (unknown origin)/His6-fused human CBP bromodomain (R1081 to G1197 residues) assessed as ternary complex formation incubated for 1.5 hrs by Alphascreen assay; format: protein assay
[30] = molecular target: T4, Protein cereblon/Histone acetyltransferase p300 (Homo sapiens); assay: Binding affinity to biotinylated CRBN (40 to 442 residues) (unknown origin)/His6-fused human p300 bromodomain (A1040 to G1161 residues) assessed as ternary complex formation incubated for 1.5 hrs by Alphascreen assay; format: protein assay
[31] = system: MV4-11; assay: Potency index, ratio of Y08207 IC50 to test compound IC50 for antiproliferative activity against human MV4-11 cells assessed as inhibition of cell growth incubated for 120 hrs by celltiter glo luminescence analysis; format: functional
[32] = molecular target: T1, CREB-binding protein; assay: Inhibition of CBP (unknown origin) using histone H3 (1 to 21 residues) as substrate preincubated for 15 mins followed by substrate and [3H]Ac-CoA addition and measured after 60 mins by liquid scintillation counting analysis
[33] = molecular target: T2, Histone acetyltransferase p300; assay: Inhibition of p300 (unknown origin) using histone H3 (1 to 21 residues) as substrate preincubated for 15 mins followed by substrate and [3H]Ac-CoA addition and measured after 60 mins by liquid scintillation counting analysis

IC50 [1]: 44 nM
IC50 [2]: 21 nM
IC50 [3]: 30 nM
IC50 [4]: 180 nM
Activity [8]: Dose-Dependent Effect
Activity [9]: Dose-Dependent Effect
Activity [10]: 100%
Activity [11]: 100%
Activity [12]: Tde
Activity [13]: Tde
Activity [14]: Active
Activity [15]: Active
Activity [16]: inactive
Activity [17]: inactive
Activity [18]: inactive
Activity [19]: inactive
Activity [22]: Active
Activity [29]: Active
Activity [30]: Active
SMILES: CC(=O)c1cc(C(=O)Nc2cc(CO)cc(-c3cnn(C)c3)c2F)c2cc(OCC(=O)NCCCCNc3cccc4c3C(=O)N(C3CCC(=O)NC3=O)C4=O)ccn12 (stereo not drawn)
IC50 [5]: 7 nM
IC50 [6]: 570 nM
IC50 at 72 h [7]: > 100000 nM
inhibition in vivo at 30 mg/kg [20]: 60%
Activity [21]: Non-Toxic
Activity [23]: Active
Activity [24]: Non-Toxic
Activity [25]: Non-Toxic
Activity [26]: Non-Toxic
Activity [27]: Non-Toxic
Activity [28]: Non-Toxic
Ratio IC50 [31]: 140

IC50 [32]: 11 nM
IC50 [33]: 0.5 nM
SMILES: CNC(=O)Nc1ccc2c(c1)CC[C@@]21OC(=O)N(CC(=O)N2Cc3cc(F)ccc3OC[C@H]2C2CC2)C1=O
